Measurements as given in ChEMBL document CHEMBL1140146, “Cycloartane glycosides from Sutherlandia frutescens” (J Nat Prod, 2008).
Activity calls are given as the source filed them.

Assays:
Assay type in all cases: functional, organism-based
Candida albicans = assay: Antimicrobial activity against Candida albicans at 20 ug/mL by NCCLS method
[1] = test system: Mycobacterium intracellulare; assay: Antimicrobial activity against Mycobacterium intracellular at 20 ug/mL
Pseudomonas aeruginosa = assay: Antimicrobial activity against Pseudomonas aeruginosa at 20 ug/mL
Aspergillus fumigatus = assay: Antimicrobial activity against Aspergillus fumigatus at 20 ug/mL
Staphylococcus aureus [2] = assay: Antimicrobial activity against Staphylococcus aureus at 20 ug/mL by microplate assay
Plasmodium falciparum [3] = assay: Antimalarial activity against Plasmodium falciparum W2 at 40 ug/mL
Staphylococcus aureus [4] = assay: Antimicrobial activity against methicillin-resistant Staphylococcus aureus at 20 ug/mL by microplate assay
Plasmodium falciparum [5] = assay: Antimalarial activity against Plasmodium falciparum D6 at 40 ug/mL
Cryptococcus neoformans = assay: Antimicrobial activity against Cryptococcus neoformans at 20 ug/mL by microplate assay

Measured: Activity

C[C@H](CC[C@H](O)C(C)(C)O[C@@H]1O[C@H](CO)[C@@H](O)[C@H](O)[C@H]1O)[C@H]1CC[C@@]2(C)[C@@H]3[C@@H](O)C[C@H]4C(C)(C)[C@H](O)CC(=O)[C@@]45C[C@@]35CC[C@]12C
inactive: all assays above

C[C@H](CC[C@H](O)C(C)(C)O[C@@H]1O[C@H](CO)[C@@H](O)[C@H](O)[C@H]1O)[C@H]1CC[C@@]2(C)[C@@H]3[C@@H](O)C[C@H]4C(C)(C)C=CC(=O)[C@@]45C[C@@]35CC[C@]12C
inactive: all assays above

C[C@H](CC[C@H](O)C(C)(C)O[C@@H]1O[C@H](CO)[C@@H](O)[C@H](O)[C@H]1O)[C@H]1CC[C@@]2(C)[C@H]3C(=CC[C@]12C)C[C@]12O[C@H]3C[C@H]1C(C)(C)[C@H](O)C[C@@H]2O
inactive: all assays above

C[C@H](CC[C@H](O)C(C)(C)O[C@@H]1O[C@H](CO)[C@@H](O)[C@H](O)[C@H]1O)[C@H]1CC[C@@]2(C)[C@@H]3CC[C@H]4C(C)(C)[C@H](O)CC(=O)[C@@]45C[C@@]35C(=O)C[C@]12C
inactive: all assays above
